From patent US20020151599A1, “FORMULATIONS HAVING AN ANTIVIRAL ACTION” (priority 1999, published 2002)

How the values were obtained:
solubility in solvents = type: physicochemical
Description: By virtue of its solubility profile, the compound is readily miscible, in some cases using solubilizers, with oils, fats and emulsions and, in view of its profile of properties, can be used in combination with other known light protection filters. […] In view of the property profile of isoquercitrin, it is easy for the person skilled in the art to choose suitable solvents and additives depending on the desired preparation product. It is particularly easy to prepare emulsions, gels or emulsion care sticks with isoquercitrin. It is, however, also possible to prepare all other cosmetic formulations, such as ointments, creams, lotions, oils, sticks and sprays, and also pharmaceutical formulations in solid or liquid form using appropriate additives.

herpes simplex viruses = details: compounds of the same aglycone compared; quercetin active only in very high doses, if at all; cited from earlier work

Compound | solubility in polar solvents (solubility in solvents; ethanol or 1,2-propylene glycol) | solubility in glycerol (solubility in solvents; glycerol, forms a slightly cloudy solution) | skin tolerance, toxic or allergic reaction (skin tolerability) | antiviral effects (herpes simplex viruses)
O=c1c(O[C@@H]2O[C@H](CO)[C@@H](O)[C@H](O)[C@H]2O)c(-c2ccc(O)c(O)c2)oc2cc(O)cc(O)c12 [isoquercitrin] | particularly readily soluble | soluble in glycerol | well tolerated by the skin | –
O=c1c(O)c(-c2ccc(O)c(O)c2)oc2cc(O)cc(O)c12 [quercetin] | – | – | – | virtually no antiviral effects
